Source: doi:10.1101/2024.08.13.607785v1 (biorxiv, 2024)
Like-named read-outs stand apart in the source and are kept apart here.

Experiments:
Experiment in all cases: biochemical
Design in all cases: species or system mixed lysate of K562, MV4-11, THP-1, NCI-H1155
[1] = biological target: T1, Cyclin-dependent kinase-like 5 ; CDKL5 ; O76039 (Homo sapiens, UniProt O76039)
T1 sequence (O76039 1-960): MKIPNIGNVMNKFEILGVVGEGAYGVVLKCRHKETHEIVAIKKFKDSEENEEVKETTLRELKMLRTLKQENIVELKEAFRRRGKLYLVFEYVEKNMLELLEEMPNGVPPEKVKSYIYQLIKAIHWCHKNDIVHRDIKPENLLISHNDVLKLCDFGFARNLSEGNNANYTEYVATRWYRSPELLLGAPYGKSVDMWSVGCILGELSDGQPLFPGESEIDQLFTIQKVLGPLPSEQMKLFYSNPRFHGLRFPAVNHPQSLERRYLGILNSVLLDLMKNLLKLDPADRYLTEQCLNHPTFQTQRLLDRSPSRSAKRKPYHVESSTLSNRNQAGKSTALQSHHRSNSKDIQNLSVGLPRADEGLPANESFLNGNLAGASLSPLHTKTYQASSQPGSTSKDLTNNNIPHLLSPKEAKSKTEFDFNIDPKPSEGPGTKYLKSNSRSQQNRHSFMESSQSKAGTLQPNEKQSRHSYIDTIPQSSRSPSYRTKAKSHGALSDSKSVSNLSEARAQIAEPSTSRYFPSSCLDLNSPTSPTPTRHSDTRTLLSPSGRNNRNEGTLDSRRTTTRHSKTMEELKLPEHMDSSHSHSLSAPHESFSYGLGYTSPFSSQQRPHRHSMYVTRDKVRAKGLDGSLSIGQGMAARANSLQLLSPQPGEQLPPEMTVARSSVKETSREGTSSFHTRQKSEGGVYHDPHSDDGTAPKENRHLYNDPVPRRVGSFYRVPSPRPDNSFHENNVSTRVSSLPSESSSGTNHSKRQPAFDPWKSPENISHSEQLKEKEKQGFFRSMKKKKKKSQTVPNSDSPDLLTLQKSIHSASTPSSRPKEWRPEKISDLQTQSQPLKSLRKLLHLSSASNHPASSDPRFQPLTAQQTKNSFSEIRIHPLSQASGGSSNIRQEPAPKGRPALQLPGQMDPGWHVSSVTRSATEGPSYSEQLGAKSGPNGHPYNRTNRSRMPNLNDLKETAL

[2] = biological target: Cyclin-dependent kinase 1 ; CDK1 ; P06493 (Homo sapiens, UniProt P06493)
[3] = biological target: Cyclin-dependent kinase 9 ; CDK9 ; P50750 (Homo sapiens, UniProt P50750)
[4] = biological target: Cyclin-dependent kinase 8 ; CDK8 ; P49336 (Homo sapiens, UniProt P49336)
[5] = biological target: T2, Discoidin domain-containing receptor 2 ; DDR2 ; Q16832 (Homo sapiens, UniProt Q16832)
T2 sequence (Q16832 1-855): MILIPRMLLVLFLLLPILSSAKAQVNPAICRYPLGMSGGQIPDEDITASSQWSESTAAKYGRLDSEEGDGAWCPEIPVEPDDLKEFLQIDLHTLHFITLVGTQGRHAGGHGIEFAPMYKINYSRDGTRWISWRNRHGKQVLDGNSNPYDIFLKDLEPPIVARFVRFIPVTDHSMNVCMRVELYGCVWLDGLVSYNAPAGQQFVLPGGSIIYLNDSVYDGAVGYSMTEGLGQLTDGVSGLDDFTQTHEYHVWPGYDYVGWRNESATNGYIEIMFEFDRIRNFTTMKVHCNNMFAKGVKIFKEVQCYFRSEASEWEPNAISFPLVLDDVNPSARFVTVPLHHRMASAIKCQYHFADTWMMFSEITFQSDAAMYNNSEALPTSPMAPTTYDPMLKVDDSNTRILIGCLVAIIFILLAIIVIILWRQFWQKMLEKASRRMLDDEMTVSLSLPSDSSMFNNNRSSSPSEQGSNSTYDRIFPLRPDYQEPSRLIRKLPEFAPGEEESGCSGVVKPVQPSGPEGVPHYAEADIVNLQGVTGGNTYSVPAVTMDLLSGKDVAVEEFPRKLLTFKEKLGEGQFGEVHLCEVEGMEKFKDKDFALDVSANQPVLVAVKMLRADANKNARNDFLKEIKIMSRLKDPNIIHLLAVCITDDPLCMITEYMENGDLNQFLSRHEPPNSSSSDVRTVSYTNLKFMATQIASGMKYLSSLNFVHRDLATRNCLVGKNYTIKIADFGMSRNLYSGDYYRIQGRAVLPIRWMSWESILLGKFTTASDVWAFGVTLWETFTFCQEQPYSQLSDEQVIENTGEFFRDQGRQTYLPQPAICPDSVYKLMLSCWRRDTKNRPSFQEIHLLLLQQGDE

[6] = biological target: High affinity nerve growth factor receptor ; NTRK1 ; P04629 (Homo sapiens, UniProt P04629)
[7] = biological target: Isoform 2 of Glycogen synthase kinase-3 beta ; GSK3B ; P49841-2 (Homo sapiens, UniProt P49841)
[8] = biological target: Cyclin-dependent-like kinase 5 ; CDK5 ; Q00535 (Homo sapiens, UniProt Q00535)
[9] = biological target: Cyclin-dependent kinase 2 ; CDK2 ; P24941 (Homo sapiens, UniProt P24941)
[10] = read-out: BAY-1143572 (10 µM) / %Intensity relative to DMSO
[11] = read-out: BAY-1251152 (10 µM) / %Intensity relative to DMSO

Chain of Cyclin-dependent kinase 8 ; CDK8 ; P49336 (P49336 whole entry, the tested form may be a part, one chain of several): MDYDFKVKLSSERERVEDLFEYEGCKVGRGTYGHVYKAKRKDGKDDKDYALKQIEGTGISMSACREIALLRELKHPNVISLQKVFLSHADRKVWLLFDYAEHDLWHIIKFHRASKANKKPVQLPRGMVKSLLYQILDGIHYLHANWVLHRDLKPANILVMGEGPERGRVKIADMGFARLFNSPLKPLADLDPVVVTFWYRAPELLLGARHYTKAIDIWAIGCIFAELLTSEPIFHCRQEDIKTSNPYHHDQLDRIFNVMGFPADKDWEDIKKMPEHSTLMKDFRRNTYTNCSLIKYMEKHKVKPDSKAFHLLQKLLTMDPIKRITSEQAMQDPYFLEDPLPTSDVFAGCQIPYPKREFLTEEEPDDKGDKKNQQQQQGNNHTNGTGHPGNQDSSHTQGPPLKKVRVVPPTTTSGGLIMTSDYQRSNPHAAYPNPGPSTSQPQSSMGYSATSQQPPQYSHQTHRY
Chain of Cyclin-dependent kinase 1 ; CDK1 ; P06493 (P06493 whole entry, one chain of several): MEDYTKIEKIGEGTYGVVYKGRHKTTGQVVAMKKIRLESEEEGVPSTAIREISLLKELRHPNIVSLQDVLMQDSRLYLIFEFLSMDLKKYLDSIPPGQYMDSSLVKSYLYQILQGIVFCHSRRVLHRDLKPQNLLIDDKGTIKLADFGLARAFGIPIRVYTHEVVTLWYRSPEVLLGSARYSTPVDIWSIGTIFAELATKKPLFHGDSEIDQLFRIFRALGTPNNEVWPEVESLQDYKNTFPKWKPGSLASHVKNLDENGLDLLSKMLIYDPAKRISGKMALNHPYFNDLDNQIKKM
Chain of Cyclin-dependent kinase 9 ; CDK9 ; P50750 (P50750 whole entry, one chain of several): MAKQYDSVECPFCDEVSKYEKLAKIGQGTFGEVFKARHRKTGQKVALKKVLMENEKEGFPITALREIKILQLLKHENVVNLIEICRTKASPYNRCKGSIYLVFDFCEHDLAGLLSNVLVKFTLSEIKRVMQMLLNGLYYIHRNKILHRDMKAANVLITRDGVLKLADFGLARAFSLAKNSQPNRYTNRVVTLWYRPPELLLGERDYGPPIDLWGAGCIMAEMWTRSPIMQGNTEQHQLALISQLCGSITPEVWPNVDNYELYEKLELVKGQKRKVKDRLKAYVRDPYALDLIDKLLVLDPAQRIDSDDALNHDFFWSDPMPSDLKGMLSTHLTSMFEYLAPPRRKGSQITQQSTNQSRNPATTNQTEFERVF
Chain of Cyclin-dependent-like kinase 5 ; CDK5 ; Q00535 (Q00535 whole entry, one chain of several): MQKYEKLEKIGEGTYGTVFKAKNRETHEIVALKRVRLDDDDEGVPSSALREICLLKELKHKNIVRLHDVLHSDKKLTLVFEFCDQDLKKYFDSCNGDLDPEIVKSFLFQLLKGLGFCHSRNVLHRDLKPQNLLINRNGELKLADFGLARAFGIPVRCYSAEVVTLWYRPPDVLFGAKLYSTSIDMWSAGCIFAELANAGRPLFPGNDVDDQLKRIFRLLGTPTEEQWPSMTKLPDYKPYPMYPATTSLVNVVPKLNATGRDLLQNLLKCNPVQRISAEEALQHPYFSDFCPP
Chain of High affinity nerve growth factor receptor ; NTRK1 ; P04629 (P04629 whole entry, canonical isoform): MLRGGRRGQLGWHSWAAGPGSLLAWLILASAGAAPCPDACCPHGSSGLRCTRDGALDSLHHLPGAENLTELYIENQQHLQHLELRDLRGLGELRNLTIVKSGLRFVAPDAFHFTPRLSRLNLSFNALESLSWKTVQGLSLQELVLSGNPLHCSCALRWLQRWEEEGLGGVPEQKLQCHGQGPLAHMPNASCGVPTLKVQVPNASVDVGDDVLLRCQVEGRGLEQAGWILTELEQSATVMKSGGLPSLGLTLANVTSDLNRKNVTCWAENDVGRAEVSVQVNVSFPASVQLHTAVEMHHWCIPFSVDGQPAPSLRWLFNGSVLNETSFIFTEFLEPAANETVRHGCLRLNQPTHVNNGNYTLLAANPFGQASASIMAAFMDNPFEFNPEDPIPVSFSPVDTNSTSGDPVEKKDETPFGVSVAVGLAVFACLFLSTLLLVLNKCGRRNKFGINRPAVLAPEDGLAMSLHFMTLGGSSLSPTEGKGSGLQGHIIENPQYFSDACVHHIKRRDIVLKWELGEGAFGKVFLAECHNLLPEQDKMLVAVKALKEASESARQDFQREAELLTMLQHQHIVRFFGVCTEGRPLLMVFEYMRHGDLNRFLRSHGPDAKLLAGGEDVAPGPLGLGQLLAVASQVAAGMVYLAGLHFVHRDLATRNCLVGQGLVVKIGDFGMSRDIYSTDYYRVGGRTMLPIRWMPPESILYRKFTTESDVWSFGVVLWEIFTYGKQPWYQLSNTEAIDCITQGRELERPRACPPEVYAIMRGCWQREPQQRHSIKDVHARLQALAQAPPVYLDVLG
Chain of Isoform 2 of Glycogen synthase kinase-3 beta ; GSK3B ; P49841-2 (P49841 whole entry, canonical isoform): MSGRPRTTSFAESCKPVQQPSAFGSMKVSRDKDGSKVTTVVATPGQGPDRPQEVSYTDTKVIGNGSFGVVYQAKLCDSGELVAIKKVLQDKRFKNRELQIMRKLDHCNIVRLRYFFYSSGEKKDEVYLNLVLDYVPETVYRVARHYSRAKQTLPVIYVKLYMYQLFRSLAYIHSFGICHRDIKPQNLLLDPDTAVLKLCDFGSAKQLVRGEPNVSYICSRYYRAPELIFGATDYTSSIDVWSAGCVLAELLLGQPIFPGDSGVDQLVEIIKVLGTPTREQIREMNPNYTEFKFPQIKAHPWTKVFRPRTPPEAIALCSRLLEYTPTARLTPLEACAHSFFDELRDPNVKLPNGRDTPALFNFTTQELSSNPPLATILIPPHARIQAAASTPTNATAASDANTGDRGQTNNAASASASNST

SMILES | remaining activity at 10 µM [1, 10] [%] | remaining activity at 10 µM [2, 10] [%] | remaining activity at 10 µM [3, 10] [%] | remaining activity at 10 µM [4, 10] [%] | remaining activity at 10 µM [5, 10] [%] | remaining activity at 10 µM [6, 10] [%] | remaining activity at 10 µM [7, 10] [%] | remaining activity at 10 µM [8, 10] [%] | remaining activity at 10 µM [9, 10] [%] | remaining activity at 10 µM [1, 11] [%] | remaining activity at 10 µM [2, 11] [%] | remaining activity at 10 µM [3, 11] [%] | remaining activity at 10 µM [4, 11] [%] | remaining activity at 10 µM [5, 11] [%] | remaining activity at 10 µM [6, 11] [%] | remaining activity at 10 µM [7, 11] [%] | remaining activity at 10 µM [8, 11] [%] | remaining activity at 10 µM [9, 11] [%]
COc1cc(F)ccc1-c1ncnc(Nc2cccc(C[S@](C)(=N)=O)c2)n1 [BAY-1143572] | 27.1 | 99.5 | 3.85 | 114 | 72.3 | 106 | 7.95 | 83.6 | 31.4 | – | – | – | – | – | – | – | – | –
COc1cc(F)ccc1-c1cc(Nc2cc(CS(C)(=N)=O)ccn2)ncc1F (stereo not drawn) [BAY-1251152] | – | – | – | – | – | – | – | – | – | 78.6 | 89.7 | 2.79 | 116 | 38.5 | 26.5 | 11.9 | 84.7 | 34.1
